One assay has as its system S. faecalis. The experiment in a line: In vitro antibacterial activity. The class given is cell-based. The conditions noted are these: all 4 strains of S. faecalis. The procedure: (§1) Win 52,522 and Win 35,439 were solubilized in 0.1 ml of 0.5 N NaOH/mg of compound and diluted in sterile distilled water to 160 mcg/ml. Vancomycin and methicillin were solubilized in sterile distilled water to 1250 mcg/ml of base compound. The stock solutions were sterilized by filtration through membrane filters with a 0.45 μm pore size.
(§2) The bacterial cultures listed in Table I (hereinbelow) were grown overnight at 37° C. in MHB for all cultures except the Streptococcus strains. These were grown in BHI+10% NHS. The overnight broth cultures were adjusted to an optical density of 0.10 (650 nm, B L Spectronic 20) in sterile distilled water and subsequently diluted to 6.7×10^6 cells/ml in MHB or BHI+1% NHS.
(§3) Serial two-fold dilutions of the compound solutions were prepared in MHB (or in BHI+1% NHS for tests with Streptococci) and dispensed into 96-well microtiter trays in a volume of 0.1 ml/well using a Sandy Springs (Bellco Glass Co.) dispenser. The trays were then inoculated with 0.0015 ml of a suspension containing 6.7×10^6 cells/ml of the appropriate inoculum using a MIC-2000 inoculator (Dynatech Corp.) resulting in a final inoculum of approximately 1×10^4 cells/well or 1×10^5 cells/ml. The trays were incubated at 37° C. for 18-20 hours and the minimal inhibitory concentration (MIC), defined as the lowest concentration of compound to inhibit visible bacterial growth, was recorded.
(§4) After the MIC values were recorded, the contents in the microtiter trays were thoroughly mixed on a Bellco Mini-orbital Shaker (Bellco Glass Co.) for 3 min. at a setting of 8. A portion (0.0015 ml) from each well was then transferred via an MIC-2000 inoculator to plates containing MHA or BHI agar+10% NHS. The plates were incubated at 37° C. for 18-20 hrs. The minimal bactericidal concentration (MBC), defined as the lowest concentration of compound that prevented the formation of a recognizable colony on the agar surface, was recorded.

The next assay concerns S. pyogenes. The experiment in a line: In vitro antibacterial activity. The class given is cell-based. As to conditions: 3 strains of S. pyogenes. The procedure: as §1, §2, §3, §4
Assay [1] has as its system S. pyogenes and S. pneumoniae. The experiment in a line: In vitro antibacterial activity. It counts as cell-based. Here is the method: as §1, §2, §3, §4
Assay [2] relates to penicillin-sensitive and methicillin-resistant Staphylococcus aureus strains. The experiment in a line: Mouse protection tests, S. aureus infections. It counts as in vivo, ICR mice; Staphylococcus aureus. The conditions noted are these: subcutaneous and oral routes, mice. Here is the method:
ICR mice, female, 18-20 grams each.
Solutions of Win 52,522 and Win 35,439 were prepared by dissolving the appropriate weight of drug in 0.3 to 0.4 ml of 1 N NaOH and then bringing the solutions to the desired volume with distilled water. Methicillin and vancomycin were dissolved directly in distilled water.
Mice were inoculated intraperitoneally with 0.5 ml of the bacterial test inoculum.
Deaths were recorded daily for seven days for all tests. Fifty percent protective dose values (PD50's) were calculated using probit analysis [SAS Users Guide: Statistics, 1982 Edition, SAS Institute, Inc., Cary, N.C.].

“Also recorded” adds a separate entry of the source.

In the case of `CN[C@H](CC(C)C)C(=O)N[C@H]1C(=O)N[C@@H](CC(N)=O)C(=O)N[C@H]2C(=O)N[C@H]3C(=O)N[C@H](C(=O)N[C@H](C(=O)O)c4cc(O)cc(O)c4-c4cc3ccc4O)[C@H](O)c3ccc(c(Cl)c3)Oc3cc2cc(c3O[C@@H]2O[C@H](CO)[C@@H](O)[C@H](O)[C@H]2O[C@H]2C[C@](C)(N)[C@H](O)[C@H](C)O2)Oc2ccc(cc2Cl)[C@H]1O` [Vancomycin], the bactericidal / bacteriostatic entry with S. faecalis is on record as “bacteriostatic”.

For the compound `CCn1cc(C(=O)O)c(=O)c2ccc(-c3cc(C)nc(C)c3)cc21` [Win 35,439, 1-ethyl-1,4-dihydro-7-(2,6-dimethyl-4-pyridinyl)-4-oxo-3-quinolinecarboxylic acid], in the assay with S. pyogenes, the bactericidal / bacteriostatic result is “bacteriostatic”.

On to `CCn1cc(C(=O)O)c(=O)c2cc(F)c(-c3cc(C)nc(C)c3)cc21` [Win 52,522, 1-ethyl-6-fluoro-1,4-dihydro-7-(2,6-dimethyl-4-pyridinyl)-4-oxo-3-quinolinecarboxylic acid], for which the “times less potent than methicillin” value in assay [1] is on record as 2-8 times. For the same compound, the “in vivo efficacy (in words)” value in assay [2] is given as “more efficacious than Win 35,439; also recorded: very potent antibacterial agent”.

The record behind these values is patent US4698350A, “1-ethyl-6-fluoro-1,4-dihydro- 7-(2,6-dimethyl-4-pyridinyl)-4-oxo-3-quinolinecarboxylic acid and antibacterial use thereof” (Sterling Drug Inc., priority 1984, dated 1987).
